For 1 cell line, relative viability results are on record in the supplement of paper PMC10307832.

Holding throughout (assay): relative viability (nuclei count vs DMSO), 5 days (fraction); higher = more cells survive
Compound in the test “Tosedostat + Lapatinib”: CC(C)C[C@@H](C(=O)N[C@H](C(=O)OC1CCCC1)c1ccccc1)[C@H](O)C(=O)NO [Tosedostat] + CS(=O)(=O)CCNCc1ccc(-c2ccc3ncnc(Nc4ccc(OCc5cccc(F)c5)c(Cl)c4)c3c2)o1 [Lapatinib] (partner 2 µM)
The gist of the method:
(§1)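 Relative viability was taken as the ratio of nuclei in treated wells to nuclei in vehicle wells. Lung cancer cell lines in 1536-well plates received compounds by pin tool one day after seeding, either one drug alone or a fixed anchor-drug dose plus five library-drug doses (not always all listed) in √10 steps. Nuclei were counted on 4× images after 5 days of treatment, and values are medians of duplicate plates.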

Compound in test [1]: CC1=NN=C(O1)C2=NN=C(C=C2)N3CCC(CC3)OC4=C(C=CC(=C4)F)Cl + Nc1nc2[nH]cc(CCc3ccc(C(=O)N[C@@H](CCC(=O)O)C(=O)O)cc3)c2c(=O)[nH]1 [Pemetrexed] (partner 0.2 µM)
The gist of the method: as §1

Compound in test [2]: CC1=NN=C(O1)C2=NN=C(C=C2)N3CCC(CC3)OC4=C(C=CC(=C4)F)Cl + CS(=O)(=O)N1CCN(Cc2cc3nc(-c4cccc5[nH]ncc45)nc(N4CCOCC4)c3s2)CC1 [Pictilisib] (partner 1 µM)
The method, boiled down:
as §1

Compound in test [3]: CC1=NN=C(O1)C2=NN=C(C=C2)N3CCC(CC3)OC4=C(C=CC(=C4)F)Cl + CC1(C)CCC(c2ccc(Cl)cc2)=C(CN2CCN(c3ccc(C(=O)NS(=O)(=O)c4ccc(N[C@H](CCN5CCOCC5)CSc5ccccc5)c(S(=O)(=O)C(F)(F)F)c4)cc3)CC2)C1 [Navitoclax] (partner 0.5 µM)
The gist of the method: as §1

Turning to UMC-11, the relative viability with Tosedostat + Lapatinib (first compound 0.02 µM) worked out at 1.05; in the test with Tosedostat + Lapatinib (first compound 0.06325 µM), 1.01; in the test with Tosedostat + Lapatinib (first compound 0.2 µM), 0.957; with Tosedostat + Lapatinib (first compound 0.6325 µM) it was 1.19; in the test with Tosedostat + Lapatinib (first compound 2 µM) it was 0.96; in test [1] (first compound 0.253 µM), 0.504. In addition, the relative viability in test [1] (first compound 0.8 µM) was 0.535; in test [1] (first compound 2.53 µM), 0.518; in test [1] (first compound 8 µM) it was 0.37; in test [2] (first compound 0.253 µM), 0.723; in test [2] (first compound 0.8 µM), 0.65; in test [2] (first compound 2.53 µM) it was 0.797. Also, the relative viability came to 0.684 in test [2] (first compound 8 µM); 0.287 in test [3] (first compound 0.253 µM); 0.344 in test [3] (first compound 0.8 µM); 0.315 in test [3] (first compound 2.53 µM); 0.317 in test [3] (first compound 8 µM).
